ChEMBL document CHEMBL1201862, “PubChem BioAssay data set” (2004)
The source made the active and inactive calls.

Experiments:
[1] = target: Beta-lactamase (Salmonella choleraesuis (strain SC-B67), UniProt Q5J463); assay: Epi-absorbance-based counterscreen for selective VIM-2 inhibitors: dose response biochemical high throughput screening assay to identify inhibitors of TEM-1 serine-beta-lactamase.
[2] = target: T1, Beta-lactamase (Pseudomonas aeruginosa, UniProt Q79MP6); assay: IMP-1 metallo-beta-lactamase inhibitors, dose response, selectivity assay for VIM-2 inhibitor project, biochemical, epi-absorbance (AID 1920)
[3] = target: T1, Beta-lactamase; assay: […] counterscreen for selective VIM-2 inhibitors: dose response biochemical high throughput screening assay to identify inhibitors of IMP-1 metallo-beta-lactamase.
[4] = NIH/3T3 fibroblast cytotoxicity, dose response, cytotoxicity control for T. cruzi growth inhibitor project, cell-based, cherry-pick samples, set 2 (AID 651817); type: functional; conditions: NIH3T3
[5] = target: Beta-galactosidase (Escherichia coli, UniProt Q8VNN2); assay: Dose response counterscreen for EBI2 assay utilizing the enzyme, b-galactosidase.; type: functional
[6] = HEK293T cell cytotoxicity, dose response, cytotoxicity control for HIV Vif inhibitor project, cherry-picks (AID 652208); type: functional, cell-based
[7] = target: Cytochrome P450 3A4 (Homo sapiens, UniProt P08684);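 further: CYP3A4 tested as one member of a cytochrome P450 panel screen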
[8] = target: Cytochrome P450 2C9 (Homo sapiens, UniProt P11712)
[9] = NIH-3T3 fibroblast cytotoxicity, dose response, cytotoxicity control, cell-based, fluorescence, Alamar Blue, secondary assay (AID 2327); type: functional;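 further: NIH-3T3 mouse fibroblasts cultured with fluconazole at 8 µg/mL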
[10] = system: Streptococcus sp. 'group A'; assay: growth inhibition of control SK(-) GAS strain, dose response, counter-screen for streptokinase expression inhibitor project, luminescence, kanamycin, BacTiterGlo, confirmation (AID 1900); type: functional, organism-based
[11] = C. albicans growth with fluconazole, confirmation, fluorescence, retest (AID 2467); type: functional, cell-based
[12] = inhibitors of intracellular T. cruzi replication, confirmation, NIH3T3 host cells, beta-gal luminescence (AID 2044); type: functional, cell-based;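 further: intracellular parasites grown in NIH/3T3 mouse fibroblasts as host cells; luminescent beta-galactosidase reporter signal from transgenic T. cruzi replicating inside host cells; inhibitors lower the luminescence signal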
[13] = target: T2, Serine/threonine-protein phosphatase (Candida dubliniensis (strain CD36 / CBS 7987 / NCPF 3949 / NRRLY-17841) (Yeast), UniProt B9W6M3); assay: calcineurin pathway inhibitors in yeast reporter, dose response, S. cerevisiae, CDRE-lacZ, luminescence, secondary (AID 2388); type: functional, cell-based;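 further: yeast reporter cells carrying a calcineurin-responsive lacZ construct stimulated with calcium chloride; luminescent beta-galactosidase reporter signal in whole cells rather than isolated phosphatase activity; potency for inhibition where a drop in reporter signal means calcineurin blockade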
T2 sequence (B9W6M3 whole entry): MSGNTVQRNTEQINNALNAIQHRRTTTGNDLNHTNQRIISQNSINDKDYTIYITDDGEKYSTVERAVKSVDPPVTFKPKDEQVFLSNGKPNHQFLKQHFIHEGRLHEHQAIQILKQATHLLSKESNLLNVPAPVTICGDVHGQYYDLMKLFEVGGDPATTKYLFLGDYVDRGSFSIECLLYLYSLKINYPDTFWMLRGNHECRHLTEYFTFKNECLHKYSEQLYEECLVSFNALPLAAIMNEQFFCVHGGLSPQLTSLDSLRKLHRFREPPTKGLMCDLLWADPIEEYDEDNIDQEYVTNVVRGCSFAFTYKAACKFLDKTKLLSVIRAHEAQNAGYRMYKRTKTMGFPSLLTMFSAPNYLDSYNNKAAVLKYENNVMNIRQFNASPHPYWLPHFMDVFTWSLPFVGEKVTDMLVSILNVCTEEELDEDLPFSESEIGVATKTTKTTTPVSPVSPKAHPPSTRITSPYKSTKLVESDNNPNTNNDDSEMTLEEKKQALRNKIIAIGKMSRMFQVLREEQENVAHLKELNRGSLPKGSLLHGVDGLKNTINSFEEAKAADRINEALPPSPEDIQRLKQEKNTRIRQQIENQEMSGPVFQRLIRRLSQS

[14] = cytotoxicity toward NIH3T3 fibroblasts, dose response, counter-screen, cell-based, ATP luminescence, mouse fibroblasts (AID 2010); type: functional;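 further: cells exposed to compound for about 90 hours before reading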
[15] = system: Streptococcus; assay: Group A Streptococcus viability loss, dose response, counter-screen for streptokinase expression inhibitor project, luminescence, BacTiterGlo (AID 1915); type: functional, organism-based;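 further: potency for reduction of bacterial viability or growth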
[16] = target: Heat shock protein HSP 90-alpha (Homo sapiens, UniProt P07900); type: functional, organism-based
[17] = target: ATP-dependent molecular chaperone HSP82 (Candida albicans (strain WO-1) (Yeast), UniProt C4YTQ8); assay: loss of DOC-induced GRE-beta-galactosidase reporter signal, dose response, Hsp90 inhibitor project, S. cerevisiae, luminescence (AID 2400); type: functional, cell-based;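 further: beta-galactosidase luminescence from glucocorticoid response element reporter as proxy for Hsp90 function; inhibitor potency where signal loss means Hsp90 inhibition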
[18] = human group III sPLA2 inhibitors, dose response, biochemical, QFRET, IC50 (AID 743457);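 further: green fluorescence rise as the enzyme cleaves BODIPY PC-A2 in liposomes; potency for inhibition of the enzyme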
[19] = target: T3, Aminopeptidase N (Plasmodium falciparum FcB1/Columbia, UniProt O96935); assay: P. falciparum M1AAP inhibitors, biochemical, fluorogenic H-Leu-NHMec substrate, 1536-well (AID 1445); set-up: species or system Plasmodium falciparum 3D7, 3D7
T3 sequence (O96935 whole entry): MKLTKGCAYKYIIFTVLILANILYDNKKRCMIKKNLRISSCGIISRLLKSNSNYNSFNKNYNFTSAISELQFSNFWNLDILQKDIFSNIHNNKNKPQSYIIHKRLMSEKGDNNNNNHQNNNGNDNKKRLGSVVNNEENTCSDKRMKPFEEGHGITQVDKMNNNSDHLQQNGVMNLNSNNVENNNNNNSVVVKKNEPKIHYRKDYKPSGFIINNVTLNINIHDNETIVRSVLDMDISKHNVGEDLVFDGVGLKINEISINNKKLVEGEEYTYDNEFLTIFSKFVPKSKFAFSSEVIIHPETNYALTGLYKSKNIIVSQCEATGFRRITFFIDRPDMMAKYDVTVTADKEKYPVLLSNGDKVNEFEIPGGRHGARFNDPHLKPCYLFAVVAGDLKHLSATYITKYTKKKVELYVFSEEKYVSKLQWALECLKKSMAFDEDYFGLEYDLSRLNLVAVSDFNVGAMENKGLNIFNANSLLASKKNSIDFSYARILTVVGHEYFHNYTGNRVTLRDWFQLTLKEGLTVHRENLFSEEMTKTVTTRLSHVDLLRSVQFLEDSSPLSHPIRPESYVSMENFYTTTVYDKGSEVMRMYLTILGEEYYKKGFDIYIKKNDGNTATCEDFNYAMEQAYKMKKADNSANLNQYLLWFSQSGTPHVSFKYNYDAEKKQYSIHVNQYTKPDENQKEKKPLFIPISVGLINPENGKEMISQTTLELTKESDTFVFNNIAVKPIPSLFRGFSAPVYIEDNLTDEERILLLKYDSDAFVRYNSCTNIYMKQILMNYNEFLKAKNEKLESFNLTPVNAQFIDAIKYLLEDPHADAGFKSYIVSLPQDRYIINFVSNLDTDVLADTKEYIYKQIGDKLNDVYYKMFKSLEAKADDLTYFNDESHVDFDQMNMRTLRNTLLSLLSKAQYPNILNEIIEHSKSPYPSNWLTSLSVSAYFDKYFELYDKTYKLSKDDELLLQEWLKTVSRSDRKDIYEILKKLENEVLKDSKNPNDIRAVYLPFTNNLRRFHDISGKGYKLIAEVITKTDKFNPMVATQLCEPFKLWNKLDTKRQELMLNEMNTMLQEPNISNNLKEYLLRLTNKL

[20] = target: T4, Cysteine protease ATG4B (Homo sapiens, UniProt Q9Y4P1); type: functional;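 further: Fluorescence-based dose-response confirmation assay measuring inhibition of ATG4B activity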
T4 sequence (Q9Y4P1 whole entry): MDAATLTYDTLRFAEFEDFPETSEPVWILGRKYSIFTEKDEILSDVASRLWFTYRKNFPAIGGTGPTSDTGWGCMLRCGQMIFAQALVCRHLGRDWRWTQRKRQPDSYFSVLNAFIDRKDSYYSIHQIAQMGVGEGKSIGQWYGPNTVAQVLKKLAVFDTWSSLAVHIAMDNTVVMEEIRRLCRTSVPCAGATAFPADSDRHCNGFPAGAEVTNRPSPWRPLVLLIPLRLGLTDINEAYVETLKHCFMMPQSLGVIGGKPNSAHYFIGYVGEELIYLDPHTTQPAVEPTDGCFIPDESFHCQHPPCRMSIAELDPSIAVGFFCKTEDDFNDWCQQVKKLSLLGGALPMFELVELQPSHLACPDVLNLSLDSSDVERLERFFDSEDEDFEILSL

[21] = target: Phospholipase A2 (Homo sapiens, UniProt P04054); type: functional;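 further: confirmatory dose-response counterscreen on phospholipase A2, testing hits that came from an ultra-high-throughput screen for ATG4B inhibitors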
[22] = target: Galanin receptor type 3 (Homo sapiens, UniProt O60755); assay: Fluorescence-based cell-based primary high throughput dose response assay to identify antagonists of the Galanin Receptor 3 (GalR3).; type: functional
[23] = cells; type: functional, cell-based; conditions: HEK-CNG

T1 sequence (Q79MP6 whole entry): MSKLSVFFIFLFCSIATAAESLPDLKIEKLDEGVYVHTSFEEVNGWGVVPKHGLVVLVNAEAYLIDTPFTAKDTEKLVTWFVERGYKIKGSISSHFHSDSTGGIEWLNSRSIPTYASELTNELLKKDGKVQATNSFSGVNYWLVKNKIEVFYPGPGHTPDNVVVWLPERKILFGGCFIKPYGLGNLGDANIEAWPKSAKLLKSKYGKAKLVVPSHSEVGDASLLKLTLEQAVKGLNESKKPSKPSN
Beta-lactamase (Salmonella choleraesuis (strain SC-B67), UniProt Q5J463), sequence (Q5J463 whole entry): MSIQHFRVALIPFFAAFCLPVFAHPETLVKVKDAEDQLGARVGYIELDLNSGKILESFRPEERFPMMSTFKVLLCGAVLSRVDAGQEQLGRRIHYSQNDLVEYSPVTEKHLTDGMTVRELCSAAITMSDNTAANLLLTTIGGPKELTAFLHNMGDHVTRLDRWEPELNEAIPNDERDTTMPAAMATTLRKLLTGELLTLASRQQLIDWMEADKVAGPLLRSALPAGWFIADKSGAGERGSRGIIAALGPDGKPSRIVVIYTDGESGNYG
ATP-dependent molecular chaperone HSP82, sequence (C4YTQ8 whole entry): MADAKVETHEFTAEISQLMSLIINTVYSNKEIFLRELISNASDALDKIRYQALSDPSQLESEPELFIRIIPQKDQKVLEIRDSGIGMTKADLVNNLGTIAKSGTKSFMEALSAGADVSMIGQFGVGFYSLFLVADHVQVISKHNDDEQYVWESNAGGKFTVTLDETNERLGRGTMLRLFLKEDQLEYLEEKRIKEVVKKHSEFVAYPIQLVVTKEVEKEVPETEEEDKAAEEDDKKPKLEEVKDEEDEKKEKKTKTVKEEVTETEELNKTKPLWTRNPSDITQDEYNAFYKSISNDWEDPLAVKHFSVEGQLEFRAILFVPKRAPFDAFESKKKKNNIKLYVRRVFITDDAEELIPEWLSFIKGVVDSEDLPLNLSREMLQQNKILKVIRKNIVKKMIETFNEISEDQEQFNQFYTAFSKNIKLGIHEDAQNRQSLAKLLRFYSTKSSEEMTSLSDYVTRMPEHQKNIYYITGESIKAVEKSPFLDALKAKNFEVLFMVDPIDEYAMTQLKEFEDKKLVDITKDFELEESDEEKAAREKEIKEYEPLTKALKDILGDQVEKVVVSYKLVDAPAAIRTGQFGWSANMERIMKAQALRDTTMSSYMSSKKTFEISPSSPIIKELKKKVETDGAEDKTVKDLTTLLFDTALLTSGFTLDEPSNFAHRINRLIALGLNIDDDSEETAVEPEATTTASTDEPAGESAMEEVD
Galanin receptor type 3, sequence (O60755 whole entry): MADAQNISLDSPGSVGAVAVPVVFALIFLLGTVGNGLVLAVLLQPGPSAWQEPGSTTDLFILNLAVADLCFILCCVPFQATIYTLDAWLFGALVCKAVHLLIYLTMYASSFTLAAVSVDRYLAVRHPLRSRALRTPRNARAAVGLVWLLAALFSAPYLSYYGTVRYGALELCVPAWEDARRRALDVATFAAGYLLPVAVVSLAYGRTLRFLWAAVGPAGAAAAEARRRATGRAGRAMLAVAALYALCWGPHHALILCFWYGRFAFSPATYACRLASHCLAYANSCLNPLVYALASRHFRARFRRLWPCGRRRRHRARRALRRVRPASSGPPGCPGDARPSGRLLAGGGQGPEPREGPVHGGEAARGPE
Cytochrome P450 3A4, sequence (P08684 whole entry): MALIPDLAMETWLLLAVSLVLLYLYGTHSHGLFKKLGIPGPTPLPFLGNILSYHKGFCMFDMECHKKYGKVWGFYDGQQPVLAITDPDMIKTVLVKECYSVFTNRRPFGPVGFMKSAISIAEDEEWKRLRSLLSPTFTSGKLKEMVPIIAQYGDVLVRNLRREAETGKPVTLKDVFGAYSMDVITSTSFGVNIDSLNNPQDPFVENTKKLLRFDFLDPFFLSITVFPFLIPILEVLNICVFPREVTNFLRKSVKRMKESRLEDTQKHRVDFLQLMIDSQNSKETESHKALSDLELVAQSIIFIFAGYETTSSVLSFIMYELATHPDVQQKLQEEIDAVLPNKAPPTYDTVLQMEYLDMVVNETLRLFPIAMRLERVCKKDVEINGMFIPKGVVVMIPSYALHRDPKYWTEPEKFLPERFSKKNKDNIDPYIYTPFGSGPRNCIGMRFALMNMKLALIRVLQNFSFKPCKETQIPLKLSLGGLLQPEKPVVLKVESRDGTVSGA
Beta-galactosidase, sequence (Q8VNN2 whole entry): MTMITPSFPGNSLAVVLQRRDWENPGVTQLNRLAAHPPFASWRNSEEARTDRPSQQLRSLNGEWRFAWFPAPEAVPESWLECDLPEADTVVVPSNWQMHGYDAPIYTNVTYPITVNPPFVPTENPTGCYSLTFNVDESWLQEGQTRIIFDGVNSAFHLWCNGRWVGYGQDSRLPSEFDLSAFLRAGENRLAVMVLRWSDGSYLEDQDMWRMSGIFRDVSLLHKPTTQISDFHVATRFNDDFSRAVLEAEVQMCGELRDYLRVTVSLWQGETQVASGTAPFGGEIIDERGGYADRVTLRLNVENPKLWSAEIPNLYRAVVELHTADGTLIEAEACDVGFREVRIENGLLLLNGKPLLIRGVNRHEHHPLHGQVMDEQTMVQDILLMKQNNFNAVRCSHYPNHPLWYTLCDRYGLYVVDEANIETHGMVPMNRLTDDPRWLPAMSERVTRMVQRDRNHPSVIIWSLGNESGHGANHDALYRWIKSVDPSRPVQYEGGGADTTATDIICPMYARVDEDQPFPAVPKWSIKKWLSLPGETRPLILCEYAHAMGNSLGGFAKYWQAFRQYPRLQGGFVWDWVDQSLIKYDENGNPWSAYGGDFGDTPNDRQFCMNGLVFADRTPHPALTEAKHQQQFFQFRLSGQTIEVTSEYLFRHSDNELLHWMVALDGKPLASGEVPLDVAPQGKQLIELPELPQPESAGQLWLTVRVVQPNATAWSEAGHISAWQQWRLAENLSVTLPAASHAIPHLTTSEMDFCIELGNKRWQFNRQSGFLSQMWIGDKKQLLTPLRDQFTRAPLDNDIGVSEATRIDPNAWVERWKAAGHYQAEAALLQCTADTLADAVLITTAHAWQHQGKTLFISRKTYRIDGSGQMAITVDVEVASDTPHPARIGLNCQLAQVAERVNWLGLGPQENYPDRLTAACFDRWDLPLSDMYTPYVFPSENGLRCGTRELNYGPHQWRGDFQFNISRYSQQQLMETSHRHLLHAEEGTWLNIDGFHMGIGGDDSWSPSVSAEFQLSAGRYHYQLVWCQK
Cytochrome P450 2C9, sequence (P11712 whole entry): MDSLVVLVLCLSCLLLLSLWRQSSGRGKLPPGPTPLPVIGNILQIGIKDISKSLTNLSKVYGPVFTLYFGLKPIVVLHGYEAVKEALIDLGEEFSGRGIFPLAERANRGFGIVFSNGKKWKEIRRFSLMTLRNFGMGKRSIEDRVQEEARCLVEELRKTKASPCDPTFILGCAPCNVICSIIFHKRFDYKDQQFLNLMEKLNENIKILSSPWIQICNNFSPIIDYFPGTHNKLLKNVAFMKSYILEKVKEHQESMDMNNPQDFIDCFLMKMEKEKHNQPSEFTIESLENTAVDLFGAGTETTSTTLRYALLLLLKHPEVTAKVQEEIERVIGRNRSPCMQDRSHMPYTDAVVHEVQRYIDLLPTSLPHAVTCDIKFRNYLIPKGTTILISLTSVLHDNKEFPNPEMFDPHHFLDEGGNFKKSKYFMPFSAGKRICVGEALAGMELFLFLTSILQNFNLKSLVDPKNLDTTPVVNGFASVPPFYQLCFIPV
Phospholipase A2, sequence (P04054 whole entry): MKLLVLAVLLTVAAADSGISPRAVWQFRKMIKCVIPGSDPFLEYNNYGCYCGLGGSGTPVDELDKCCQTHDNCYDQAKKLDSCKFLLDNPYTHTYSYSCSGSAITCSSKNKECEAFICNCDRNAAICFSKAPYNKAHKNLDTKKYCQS

For `Cc1cc(C(=O)OCC(=O)NC(=O)c2cccn2C)c2ccccc2n1`, the IC50 [1] was > 59.6 µM (inactive), the IC50 [2] was > 59.6 µM (inactive) and the IC50 [3] was > 59.6 µM (inactive).

In the case of `C[C@H]1CN([C@@H](C)CO)C(=O)c2cccc(NC(=O)c3nc4ccccc4s3)c2O[C@@H]1CN(C)Cc1ccc2c(c1)OCO2`, the AC50 [4] is reported as 9.31 µM (active).

In the case of `CO/N=C/c1ccc(Oc2ccc(C)cc2)nc1`, the IC50 [5] is reported as > 80 µM (inactive).

For `CCCc1cc(=O)oc2cc(OCc3cc(OC)c(OC)c(OC)c3)c(Cl)cc12`, the AC50 [6] was > 52 µM (inactive), the AC50 [7] was 3.55 µM (inconclusive) and the AC50 [8] was 1 µM (inconclusive).

For `COc1ccc(Cl)cc1C(Nc1cccnc1)c1ccc2cccnc2c1O` (configuration not stated), the EC50 [9] was 33.6 µM (active), the EC50 [10] was 3.74 µM (active) and the EC50 [11] was 0.728 µM (active). For the same compound, the EC50 [12] was 1.86 µM (active), the EC50 [13] was > 180 µM (inactive) and the EC50 [14] was 6.56 µM (active). The EC50 [15] was 5.9 µM (active), the AC50 [16] was 2.2 µM (active) and the EC50 [17] was 16.3 µM (active). For the same compound, the IC50 [18] was > 122 µM (inactive).

In the case of `C[C@@H]1CN([C@@H](C)CO)C(=O)c2cccc(NC(=O)c3ccncc3)c2O[C@@H]1CN(C)Cc1ccccc1`, the AC50 [4] is reported as 39 µM (inactive).

In the case of `Cc1cc(OCc2cc(C(=O)O)oc2C)c2c3c(c(=O)oc2c1)CCCC3`, the IC50 [1] is reported as > 59.6 µM (inactive), the IC50 [19] is reported as 66.4 µM (active) and the IC50 [2] is reported as > 59.6 µM (inactive). For the same compound, the IC50 [3] was > 59.6 µM (inactive), the IC50 [20] was 17.3 µM (active) and the IC50 [21] was 13.5 µM (active).

For `COc1ccc(CN2CCC(C(=O)Nc3ccc(Oc4ccccc4)nc3)CC2)cc1F`, the IC50 [22] was 3.56 µM (active) and the EC50 [23] was > 29.9 µM (inactive).
